Columns and labels:
Assay in all cases: relative viability (nuclei count vs DMSO), 5 days (fraction); higher = more cells survive
[1] = compound: COc1cc2nc(N3CCCN(C)CC3)nc(NC3CCN(Cc4ccccc4)CC3)c2cc1OC + CS(=O)(=O)CCNCc1ccc(-c2ccc3ncnc(Nc4ccc(OCc5cccc(F)c5)c(Cl)c4)c3c2)o1 [Lapatinib] (partner 2 µM)
Method in brief: (§1)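 A single step with final 0.05% Triton X-100, 1% formaldehyde and 1 ug/ml Hoechst fixed the cells and stained nuclei 5 days after treatment. Lung cancer cell lines in 1536-well plates had been treated by pin tool the day after seeding with one drug alone or a fixed anchor-drug dose plus five library-drug doses (not always all listed) in √10 steps, and nuclei were counted on 4× images. Relative viability is the ratio of nuclei in treated wells to nuclei in vehicle wells, taken as the median of duplicate plates.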

[2] = compound: COc1cc2nc(N3CCCN(C)CC3)nc(NC3CCN(Cc4ccccc4)CC3)c2cc1OC + O=C(c1cc(Cc2n[nH]c(=O)c3ccccc23)ccc1F)N1CCN(C(=O)C2CC2)CC1 [Olaparib] (partner 8 µM)
Method in brief: as §1

[3] = compound: Cc1cc([C@@H](C)Nc2ccccc2C(=O)O)c2nc(N3CCOCC3)cc(=O)n2c1 [AZD6482] + Cc1cc(Nc2cc(N3CCN(C)CC3)nc(Sc3ccc(NC(=O)C4CC4)cc3)n2)n[nH]1 [Tozasertib] (partner 0.1 µM)
Method in brief: as §1

[4] = compound: Cc1cc([C@@H](C)Nc2ccccc2C(=O)O)c2nc(N3CCOCC3)cc(=O)n2c1 [AZD6482] + Nc1ncn([C@H]2C[C@H](O)[C@@H](CO)O2)c(=O)n1 [Decitabine] (partner 2 µM)
Method in brief: as §1

Cell Line	relative viability ([1]; first compound 0.2 µM)	relative viability ([1]; first compound 0.6325 µM)	relative viability ([1]; first compound 2 µM)	relative viability ([1]; first compound 6.325 µM)	relative viability ([2]; first compound 0.2 µM)	relative viability ([2]; first compound 0.6325 µM)	relative viability ([2]; first compound 2 µM)	relative viability ([2]; first compound 6.325 µM)	relative viability ([3]; first compound 0.08 µM)	relative viability ([3]; first compound 0.253 µM)	relative viability ([3]; first compound 0.8 µM)	relative viability ([3]; first compound 2.53 µM)	relative viability ([3]; first compound 8 µM)	relative viability ([4]; first compound 0.08 µM)	relative viability ([4]; first compound 0.253 µM)	relative viability ([4]; first compound 0.8 µM)	relative viability ([4]; first compound 2.53 µM)	relative viability ([4]; first compound 8 µM)
NCI-H358	0.449	0.554	0.49	0.347	0.51	0.628	0.644	0.568	0.0814	0.107	0.104	0.0733	0.0946	0.246	0.218	0.237	0.185	0.189
NCI-H460	0.9	0.979	0.902	0.487	0.425	0.397	0.37	0.323	0.468	0.288	0.135	0.537	0.389	0.445	0.38	0.618	0.452	0.395
NCI-H520	0.892	0.894	0.92	0.3	0.332	0.321	0.324	0.144	0.39	0.344	0.344	0.221	0.221	0.418	0.331	0.344	0.198	0.244
NCI-H596	1.1	0.563	1.24	0.837	0.677	0.721	0.736	0.672	0.854	1.16	0.725	0.772	0.666	0.865	0.937	0.972	1.01	0.946
NCI-H647	1.16	0.967	1.11	0.417	0.517	0.443	0.537	0.242	0.23	0.26	0.192	0.145	0.23	0.374	0.406	0.302	0.236	0.361
NCI-H650	0.731	0.839	1.3	0.692	0.445	0.356	0.434	0.396	0.722		0.751	0.588	0.443	0.318	0.292	0.378	0.33	0.317
NCI-H661	0.568	0.503	0.68	0.563	0.731	0.713	0.822	0.782	0.365	0.362	0.407	0.372	0.383	0.557	0.569	0.571	0.498	0.422
NCI-H727	0.769	0.901	0.838	0.543	0.646	0.616	0.772	0.59	0.587	0.645	0.571	0.457	0.449	0.951	0.85	1.02		0.798
NCI-H838	0.948	1.11	1.13	0.918	0.762	0.717	0.791	0.777	0.264	0.266	0.243	0.192	0.222	0.436	0.442	0.433	0.428	0.364
NCI-H1355	1.01	0.992	1.05	0.951	0.714	0.743	0.862	0.79	0.462	0.419	0.43	0.435	0.441	0.346	0.362	0.363	0.341	0.35
NCI-H1395	0.987	1.08	1.29	0.831	0.444	0.473	0.445	0.433	0.625	0.646	0.584	0.54	0.44	0.584	0.601	0.636	0.496	0.489
NCI-H1437	0.754	0.888	0.966	0.698	0.626	0.628	0.623	0.574	0.393	0.408	0.301	0.325	0.254	0.572	0.523	0.607	0.572	0.407
NCI-H1650	0.75	0.813	0.915	0.579	0.773	0.787	0.886	0.648	0.36	0.378	0.303	0.336	0.393	0.381	0.571	0.544	0.584	0.474
NCI-H1651	0.785	0.807	0.834	0.855	0.181	0.149	0.157	0.17	0.68	0.647	0.598	0.565	0.592	0.627	0.429	0.572	0.446	0.482
NCI-H1666	0.508	0.746	0.475	0.332	0.716	0.754	0.756	0.751	0.544	0.701	0.592	0.554	0.648	0.72	0.687	0.715	0.645	0.642
NCI-H1734	1.11	0.977	1.06	0.76	0.61	0.533	0.645	0.594	0.287	0.263	0.269	0.217	0.24	0.508	0.476	0.463	0.407	0.435
NCI-H1755	1.03	1.02	1.06	0.927	0.805	0.832	0.85	0.831	0.608	0.537	0.688	0.478	0.519	0.709	0.733	0.749	0.668	0.6
NCI-H1793	0.75	0.742	0.855	0.664	0.805	0.924	1.09	0.995	0.256	0.189	0.219	0.226	0.15	0.419	0.429	0.313	0.297	0.271

— the supplement of paper PMC10307832
